{"source": "patent US7541173B2", "about": "“Solvent tolerant microorganisms and methods of isolation” (E.I. du Pont de Nemours and Company, priority 2006, dated 2009)", "key": {"[1]": {"test_system": "butanol tolerant Lactobacillus strains", "type": "cell-based", "settings": "S20 agar or TSA agar, 37° C., 24 to 72 h", "protocol": "The square-well microtiter plate was sealed with an adhesive cover (Beckman Coulter Inc.; Catalog No. 538619) and incubated at 37° C. with shaking for up to 72 h. The square-well microtiter plate was used to make a master plate by dispensing 200 μL of culture from each square well into a corresponding well in a “U-bottom” microtiter plate (VWR Scientific Products, West Chester, Pa.; Catalog No. 62409-052)."}, "[2]": {"test_system": "microbial consortium from wastewater sludge samples", "settings": "1-butanol 1.6%, chemostat, 37° C."}, "[3]": {"test_system": "most microorganisms described in the art", "settings": "liquid medium at 37° C.; cited from earlier work"}}, "data": [{"substance": "1-butanol", "values": [{"measurement": "1-butanol concentration in agar medium on which isolates grew", "setting": "[1]", "result": 3, "unit": "%"}, {"measurement": "cell density after continued incubation", "setting": "[2]; after adaptation", "result": 2.3, "unit": "OD600"}, {"measurement": "cell density after increasing 1-butanol in feed", "setting": "[2]; initial decrease", "result": "less than 1.5 OD600"}, {"measurement": "concentration at which growth is totally inhibited", "setting": "[3]", "result": "less than 2.0 % w/v"}]}]}
